Test results published in patent US8575156B2, “Cyclic inhibitors of 11β-hydroxysteroid dehydrogenase 1” (Vitae Pharmaceuticals, Inc., priority 2007, dated 2013).
Read-outs that look alike come from different tables or passages of the source.

Molecular target: 11β-HSD1 (Homo sapiens, UniProt P28845)
Experiment: biochemical
Settings: for IC50: IC50 Range, Biological Test Example 1, microsomes from CHO cells overexpressing human 11β-HSD1; for inhibition at 0.1 µM: read-out: Average % inhibition at 100 nM, Biological Test Example 1; for inhibition at 0.1111 µM: read-out: Average % inhibition at 111.1 nM, Biological Test Example 1, 111.1 nM compound

Sequence of 11β-HSD1 (P28845 whole entry): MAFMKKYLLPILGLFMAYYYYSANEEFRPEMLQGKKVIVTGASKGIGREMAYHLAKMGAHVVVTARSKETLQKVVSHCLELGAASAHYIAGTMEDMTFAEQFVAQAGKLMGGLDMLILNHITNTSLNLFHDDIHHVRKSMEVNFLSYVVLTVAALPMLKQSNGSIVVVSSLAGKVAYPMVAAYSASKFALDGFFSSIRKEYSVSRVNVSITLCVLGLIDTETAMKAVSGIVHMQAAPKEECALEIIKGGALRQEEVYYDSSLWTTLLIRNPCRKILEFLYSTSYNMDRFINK

SMILES	IC50	inhibition at 0.1 µM (100 nM)	inhibition at 0.1 µM (100 nM compound)	inhibition at 0.1111 µM
CC(=O)NCC(C)(C)C[C@]1(c2ccc(F)cc2)CCN([C@@H](C)c2ccc(Br)cc2)C(=O)O1 [EXAMPLE 605, N-(3-((R)-3-((S)-1-(4-bromophenyl)ethyl)-6-(4-fluorophenyl)-2-oxo-1,3-oxazinan-6-yl)-2,2-dimethylpropyl)acetamide]	< 100 nM	85.8%	–	–
CC[C@@H](c1ccc(OC(F)F)cc1)N1CC[C@](CCC(N)=O)(c2ccc(F)cc2)OC1=O [EXAMPLE 326, 3-((R)-3-((S)-1-(4-(difluoromethoxy)phenyl)propyl)-6-(4-fluorophenyl)-2-oxo-1,3-oxazinan-6-yl)propanamide]	< 100 nM	97.7%	–	–
CC(C)C1(CCCO)CCN([C@@H](C)c2ccc(-c3ccc(F)cc3F)cc2)C(=O)O1 (single isomer, unassigned) [EXAMPLE 212 Isomer 1]	< 100 nM	–	96.8%	–
CC1(c2ccccc2)CCN(c2cccc(-c3cccc(S(C)(=O)=O)c3)c2)C(=O)O1 (centres unmarked) [EXAMPLE 40, 6-methyl-3-(3′-(methylsulfonyl)biphenyl-3-yl)-6-phenyl-1,3-oxazinan-2-one]	100 to 1000 nM	–	–	28.8%
CC1(c2ccccc2)CCN(c2cccc(-c3cc(F)cc(F)c3)c2)C(=O)O1 (centres unmarked) [EXAMPLE 27, 3-(3′,5′-difluorobiphenyl-3-yl)-6-methyl-6-phenyl-1,3-oxazinan-2-one]	< 100 nM	–	–	67%
CC1(c2ccccc2)CCN(c2cccc(-c3cccc(C#N)c3)c2)C(=O)O1 (centres unmarked) [EXAMPLE 17, 3′-(6-methyl-2-oxo-6-phenyl-1,3-oxazinan-3-yl)biphenyl-3-carbonitrile]	< 100 nM	–	–	58.8%
C=CC[C@@]1(c2ccc(F)cc2)CCN([C@@H](C)c2ccc(Br)cc2)C(=O)O1 (single isomer, unassigned) [EXAMPLE 110 Isomer 1]	< 100 nM	–	90.5%	–
CC1(c2ccccc2)CCN(c2cccc(-c3cccc(NS(C)(=O)=O)c3)c2)C(=O)O1 (centres unmarked) [EXAMPLE 29, N-(3′-(6-methyl-2-oxo-6-phenyl-1,3-oxazinan-3-yl)biphenyl-3-yl)methanesulfonamide]	100 to 1000 nM	–	–	29.8%
C[C@@H](c1ccc(OC(F)F)cc1)N1CC[C@](CCCNS(C)(=O)=O)(c2ccccc2)OC1=O [EXAMPLE 331, N-(3-((R)-3-((S)-1-(4-(difluoromethoxy)phenyl)ethyl)-2-oxo-6-phenyl-1,3-oxazinan-6-yl)propyl)methanesulfonamide]	< 100 nM	97.1%	–	–
C[C@H](c1ccccc1)N1CCC(C)(c2ccccc2)OC1=O (single isomer, unassigned) [EXAMPLE 83 Isomer 1]	100 to 1000 nM	–	–	50.3%
C[C@@H](c1ccc(-c2ccc(CN)cc2)cc1)N1CC[C@](CCCO)(c2ccccc2)OC1=O [EXAMPLE 495, (R)-3-((S)-1-(4′-(aminomethyl)biphenyl-4-yl)ethyl)-6-(3-hydroxypropyl)-6-phenyl-1,3-oxazinan-2-one]	< 100 nM	95.8%	–	–
C[C@@H](c1ccc(Br)cc1)N1CC[C@](CCNS(C)(=O)=O)(c2ccccc2)OC1=O [EXAMPLE 507, N-(2-((S)-3-((S)-1-(4-bromophenyl)ethyl)-2-oxo-6-phenyl-1,3-oxazinan-6-yl)ethyl)methanesulfonamide]	< 100 nM	96.1%	–	–
C[C@@H](c1ccc(Cl)c(F)c1)N1CC[C@](CCCO)(c2ccc(F)cc2)OC1=O [EXAMPLE 498, (R)-3-((S)-1-(4-chloro-3-fluorophenyl)ethyl)-6-(4-fluorophenyl)-6-(3-hydroxypropyl)-1,3-oxazinan-2-one]	< 100 nM	97.8%	–	–
CC[C@@H](c1ccc(Br)cc1)N1CCC(CCO)(c2ccc(F)cc2)OC1=O (single isomer, unassigned) [EXAMPLE 143 Isomer 1]	< 100 nM	–	–	54.4%
C[C@@H](c1ccc(Br)cc1)N1CC[C@](CC(O)CO)(c2ccc(F)cc2)OC1=O (single isomer, unassigned) [EXAMPLE 144 Isomer 1]	< 100 nM	–	–	90.6%
Cc1nnc(C[C@]2(c3ccccc3)CCN([C@@H](C)c3ccc(Br)cc3)C(=O)O2)o1 [EXAMPLE 530, (S)-3-((S)-1-(4-bromophenyl)ethyl)-6-((5-methyl-1,3,4-oxadiazol-2-yl)methyl)-6-phenyl-1,3-oxazinan-2-one]	< 100 nM	73.3%	–	–
C=CCC1(c2ccc(F)cc2)CCN(Cc2cc(Cl)ccc2Cl)C(=O)O1 (centres unmarked) [EXAMPLE 344, 6-allyl-3-(2,5-dichlorobenzyl)-6-(4-fluorophenyl)-1,3-oxazinan-2-one]	< 100 nM	65.7%	–	–
C[C@@H](c1ccc(C(F)(F)F)cc1)N1CC[C@](CC(C)(C)O)(c2ccccc2)OC1=O [EXAMPLE 400, (S)-6-(2-hydroxy-2-methylpropyl)-6-phenyl-3-((S)-1-(4-(trifluoromethyl)phenyl)ethyl)-1,3-oxazinan-2-one]	< 100 nM	96.8%	–	–

SMILES	IC50	inhibition at 0.1 µM (100 nM)	inhibition at 0.1 µM (100 nM compound)	inhibition at 0.1111 µM
CC1(c2ccccc2)CCN(c2nccc(-c3c(Cl)cccc3Cl)n2)C(=O)O1 (centres unmarked) [EXAMPLE 60, 3-(4-(2,6-dichlorophenyl)pyrimidin-2-yl)-6-methyl-6-phenyl-1,3-oxazinan-2-one]	100 to 1000 nM	–	–	51.3%
CC(O)CC1(C(C)C)CCN([C@@H](C)c2ccc(-c3ccc(F)cc3F)cc2)C(=O)O1 (stereo partly drawn) [EXAMPLE 213, 3-((1S)-1-(2′,4′-difluorobiphenyl-4-yl)ethyl)-6-(2-hydroxypropyl)-6-isopropyl-1,3-oxazinan-2-one]	< 100 nM	–	79.1%	–
Cc1ccc([C@H](C)N2CC[C@](CCCO)(c3ccccc3)OC2=O)cc1 [EXAMPLE 423, (R)-6-(3-hydroxypropyl)-6-phenyl-3-((S)-1-p-tolylethyl)-1,3-oxazinan-2-one]	< 100 nM	97.6%	–	–
C=CC[C@]1(c2ccc(F)cc2)CCN([C@@H](C)c2ccc(C(C)(C)O)cc2)C(=O)O1 [EXAMPLE 156, (R)-6-allyl-6-(4-fluorophenyl)-3-((S)-1-(4-(2-hydroxypropan-2-yl)phenyl)ethyl)-1,3-oxazinan-2-one]	< 100 nM	–	–	93.8%
COc1ccc([C@H](C)N2CC[C@](CC(O)CO)(c3ccc(F)cc3)OC2=O)cc1 (single isomer, unassigned) [EXAMPLE 206 Isomer 1]	< 100 nM	–	90.3%	–
C[C@@H](c1ccc(Br)cc1)N1CC[C@](CCC#N)(c2ccc(F)cc2)OC1=O [EXAMPLE 524, 3-((R)-3-((S)-1-(4-bromophenyl)ethyl)-6-(4-fluorophenyl)-2-oxo-1,3-oxazinan-6-yl)propanenitrile]	< 100 nM	97.9%	–	–
C[C@@H](c1ccc(F)cc1)N1CC[C@](CCCNS(C)(=O)=O)(c2ccc(F)cc2)OC1=O [EXAMPLE 409, N-(3-((R)-6-(4-fluorophenyl)-3-((S)-1-(4-fluorophenyl)ethyl)-2-oxo-1,3-oxazinan-6-yl)propyl)methanesulfonamide]	< 100 nM	91.6%	–	–
CC(C)(O)CC1(c2ccccc2)CCN(c2cccc(-c3ccc(F)cc3F)c2)C(=O)O1 (centres unmarked) [EXAMPLE 117, 3-(2′,4′-difluorobiphenyl-3-yl)-6-(2-hydroxy-2-methylpropyl)-6-phenyl-1,3-oxazinan-2-one]	< 100 nM	–	–	82.8%
C[C@@H](c1ccc(-c2ccc(F)cc2)cc1)N1CC[C@@](CCO)(c2cccs2)OC1=O (single isomer, unassigned) [EXAMPLE 218 Isomer 2]	< 100 nM	–	60.3%	–
C=CC[C@]1(c2ccc(F)cc2)CCN([C@@H](C)c2ccc(C#N)cc2)C(=O)O1 [EXAMPLE 192, 4-((S)-1-((R)-6-allyl-6-(4-fluorophenyl)-2-oxo-1,3-oxazinan-3-yl)ethyl)benzonitrile]	< 100 nM	–	70.7%	–
C=CC[C@]1(c2ccc(F)cc2)CCN([C@@H](C)c2ccc(Cl)c(F)c2)C(=O)O1 (single isomer, unassigned) [EXAMPLE 497 Isomer 2]	< 100 nM	–	–	–
C[C@@H](c1cccc(C#N)c1)N1CC[C@](CCCOC(=O)C(F)(F)F)(c2ccc(F)cc2)OC1=O [EXAMPLE 361, 3-((R)-3-((S)-1-(3-cyanophenyl)ethyl)-6-(4-fluorophenyl)-2-oxo-1,3-oxazinan-6-yl)propyl 2,2,2-trifluoroacetate]	< 100 nM	67.4%	–	–
C=CCC1(c2ccc(F)cc2)CCN(C(C)c2ccc(-c3ccc(F)cc3F)cn2)C(=O)O1 (centres unmarked) [EXAMPLE 131, 6-allyl-3-(1-(5-(2,4-difluorophenyl)pyridin-2-yl)ethyl)-6-(4-fluorophenyl)-1,3-oxazinan-2-one]	> 1000 nM	–	6.6%	11.3%
CC(O)C[C@]1(c2ccccc2)CCN([C@@H](C)c2ccc(-c3ccc(F)cc3)cc2)C(=O)O1 (stereo partly drawn) [EXAMPLE 224, (6S)-3-((1S)-1-(4′-fluorobiphenyl-4-yl)ethyl)-6-(2-hydroxypropyl)-6-phenyl-1,3-oxazinan-2-one]	< 100 nM	–	97.3%	–
C[C@@H](c1ccc(Cl)cc1F)N1CC[C@](CCCO)(c2ccc(F)cc2)OC1=O [EXAMPLE 534, (R)-3-((S)-1-(4-chloro-2-fluorophenyl)ethyl)-6-(4-fluorophenyl)-6-(3-hydroxypropyl)-1,3-oxazinan-2-one]	< 100 nM	98.5%	–	–
Cc1cc(-c2ccc([C@H](C)N3CCC(C)(c4ccc(F)cc4)OC3=O)cc2)ccn1 (single isomer, unassigned) [EXAMPLE 519 Isomer 1]	< 100 nM	–	–	–
O=C(O)CC1(c2ccccc2)CCN(c2cccc(-c3ccc(F)cc3F)c2)C(=O)O1 (centres unmarked) [EXAMPLE 70, 2-(3-(2′,4′-difluorobiphenyl-3-yl)-2-oxo-6-phenyl-1,3-oxazinan-6-yl)acetic acid]	100 to 1000 nM	–	–	9.3%
C[C@@H](c1ccc(Br)cc1)N1CC[C@@](CCC(N)=O)(c2ccc(F)cc2F)OC1=O (single isomer, unassigned) [EXAMPLE 504 Isomer 1]	< 100 nM	49.9%	–	–
